In ChEMBL document CHEMBL1142306, “Biflavonoids isolated from Selaginella tamariscina regulate the expression of matrix metalloproteinase in human skin fibroblasts” (Bioorg Med Chem, 2008):
The source made the active and inactive calls. The calls are words filed in the database; no cut-off is given here.

Assays:
Fibroblast [1] = assay: Inhibition of UVB irradiation-induced MMP1 production in human dermal fibroblasts at 2.5 uM after 48 hrs; assay type: functional, cell-based
Fibroblast [2] = assay: Decrease in cell viability of UVB irradiated human dermal fibroblasts at 5 uM; assay type: functional
Fibroblast [3] = assay: Growth inhibition of UVB irradiated human dermal fibroblasts at 5 uM; assay type: functional, cell-based
Fibroblast [4] = assay: Inhibition of UVB irradiation-induced MMP1 production in human dermal fibroblasts at 1.25 uM after 48 hrs; assay type: functional, cell-based
Fibroblast [5] = assay: Inhibition of UVB irradiation-induced MMP1 production in human dermal fibroblasts at 5 uM after 48 hrs; assay type: functional, cell-based
[6] = biological target: 72 kDa type IV collagenase (Homo sapiens) (UniProt P08253); assay: Inhibition of MMP2 in UVB irradiated human dermal fibroblasts at <5 uM by zymography
72 kDa type IV collagenase (Homo sapiens), sequence (P08253 110-660 limits assumed): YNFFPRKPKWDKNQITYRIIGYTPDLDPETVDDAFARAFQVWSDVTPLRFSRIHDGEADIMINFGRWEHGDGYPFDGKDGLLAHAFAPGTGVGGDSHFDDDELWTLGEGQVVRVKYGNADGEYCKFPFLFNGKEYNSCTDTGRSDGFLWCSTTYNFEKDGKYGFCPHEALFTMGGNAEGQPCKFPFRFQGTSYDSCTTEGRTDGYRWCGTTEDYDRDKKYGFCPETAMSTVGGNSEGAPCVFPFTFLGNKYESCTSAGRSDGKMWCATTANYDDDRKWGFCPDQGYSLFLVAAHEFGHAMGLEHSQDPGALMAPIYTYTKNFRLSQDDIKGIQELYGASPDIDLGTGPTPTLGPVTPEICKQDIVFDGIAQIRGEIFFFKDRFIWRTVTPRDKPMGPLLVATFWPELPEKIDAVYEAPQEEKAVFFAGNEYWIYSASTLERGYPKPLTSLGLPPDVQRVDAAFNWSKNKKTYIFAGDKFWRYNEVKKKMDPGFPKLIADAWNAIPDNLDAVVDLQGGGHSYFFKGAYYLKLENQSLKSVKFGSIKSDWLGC

Fibroblast [7] = assay: Decrease in protein content in UVB irradiated human dermal fibroblasts at 5 uM relative to control; assay type: functional; design: scale not given: the % may be the effect or the level left
Fibroblast [8] = assay: Inhibition of UVB irradiation-induced MMP1 production in human dermal fibroblasts after 48 hrs; assay type: functional, cell-based; conditions: for IC50: light or radiation study
Fibroblast [9] = assay: Decrease in cell viability of UVB irradiated human dermal fibroblasts at 20 uM; assay type: functional
Fibroblast [10] = assay: Inhibition of UVB irradiation-induced MMP1 production in human dermal fibroblasts at 10 uM after 48 hrs; assay type: functional, cell-based
Fibroblast [11] = assay: Inhibition of UVB irradiation-induced MMP1 production in human dermal fibroblasts at 20 uM after 48 hrs; assay type: functional, cell-based
Fibroblast [12] = assay: Decrease in protein content in UVB irradiated human dermal fibroblasts at 20 uM relative to control; assay type: functional; design: scale not given: the % may be the effect or the level left
Fibroblast [13] = assay: Growth inhibition of UVB irradiated human dermal fibroblasts at 20 uM; assay type: functional, cell-based

SMILES | Activity [6] | Activity (Fibroblast [1]) | Activity (Fibroblast [2]) [%] | Activity (Fibroblast [3]) | Activity (Fibroblast [4]) | Activity (Fibroblast [5]) | Activity (Fibroblast [7]) [%] | Activity (Fibroblast [8]) | IC50 (Fibroblast [8]) [nM] | Activity (Fibroblast [9]) [%] | Activity (Fibroblast [10]) | Activity (Fibroblast [11]) | Activity (Fibroblast [12]) [%] | Activity (Fibroblast [13])
O=c1cc(-c2ccc(O)c(-c3c(O)c(O)c(O)c4c(=O)cc(-c5ccc(O)cc5)oc34)c2)oc2cc(O)cc(O)c12 [SUMAFLAVONE] | inactive |  | 50 | Active |  | Active | 50 | Dose-dependent effect | 780 |  |  |  |  | 
O=c1cc(-c2ccc(O)c(-c3c(-c4ccc(O)cc4)oc4cc(O)cc(O)c4c3=O)c2)oc2cc(O)cc(O)c12 [TAIWANIAFLAVONE] | inactive |  |  |  |  | inactive |  |  |  | 50 | inactive | Active | 50 | Active
CC1=C(/C=C/C(C)=C/C=C/C(C)=C/C(=O)O)C(C)(C)CCC1 [TRETINOIN] |  |  |  |  |  |  |  |  | 10000 |  |  |  |  | 
O=c1cc(-c2ccc(O)c(-c3c(O)cc4oc(-c5ccc(O)cc5)cc(=O)c4c3O)c2)oc2cc(O)cc(O)c12 | inactive | inactive |  |  | inactive | inactive |  |  |  |  |  |  |  | 

Now from value to compound, other results behind:

Activity [6] | SMILES | Activity (Fibroblast [1]) | Activity (Fibroblast [2]) [%] | Activity (Fibroblast [3]) | Activity (Fibroblast [4]) | Activity (Fibroblast [5]) | Activity (Fibroblast [7]) [%] | Activity (Fibroblast [8]) | IC50 (Fibroblast [8]) [nM] | Activity (Fibroblast [9]) [%] | Activity (Fibroblast [10]) | Activity (Fibroblast [11]) | Activity (Fibroblast [12]) [%] | Activity (Fibroblast [13])
inactive | O=c1cc(-c2ccc(O)cc2-c2c(O)cc(O)c3c(=O)cc(-c4ccc(O)cc4)oc23)oc2cc(O)cc(O)c12 | inactive | 50 | Active | inactive | Active | 50 |  |  |  |  |  |  | 
inactive | O=c1cc(-c2ccc(O)c(-c3c(O)cc(O)c4c(=O)cc(-c5ccc(O)cc5)oc34)c2)oc2cc(O)cc(O)c12 [AMENTOFLAVONE] |  |  |  |  | Active |  | Dose-dependent effect | 1800 |  |  |  |  | 
